ChEMBL document CHEMBL5154930, “Design, Synthesis, and Biological Evaluations of DOT1L Peptide Mimetics Targeting the Protein-Protein Interactions between DOT1L and MLL-AF9/MLL-ENL” (J Med Chem, 2022)
Non-standard residues stand in square brackets, D forms with d. Residues, ends and D or L forms follow the SMILES beside them. *: point of attachment. X2 = c1ccc(-c2cn(CC3CCCCC3)c([C@@H]3CCCN3*)n2)cc1; Ala(cPent) = N[C@@H](CC1CCCC1)C(=O)O; Pentanoyl(4-Me) = CC(C)CCC(=O)*; Dap = NC[C@H](N)C(=O)O

Columns and labels:
[1] = biological target: T1, Protein ENL (Homo sapiens, UniProt Q03111); experiment: Binding affinity to MBP-tagged human recombinant ENL (489 to 559 residues) incubated for 40 mins by measuring fluorescence polarization by microplate reader method
T1 sequence (Q03111 whole entry): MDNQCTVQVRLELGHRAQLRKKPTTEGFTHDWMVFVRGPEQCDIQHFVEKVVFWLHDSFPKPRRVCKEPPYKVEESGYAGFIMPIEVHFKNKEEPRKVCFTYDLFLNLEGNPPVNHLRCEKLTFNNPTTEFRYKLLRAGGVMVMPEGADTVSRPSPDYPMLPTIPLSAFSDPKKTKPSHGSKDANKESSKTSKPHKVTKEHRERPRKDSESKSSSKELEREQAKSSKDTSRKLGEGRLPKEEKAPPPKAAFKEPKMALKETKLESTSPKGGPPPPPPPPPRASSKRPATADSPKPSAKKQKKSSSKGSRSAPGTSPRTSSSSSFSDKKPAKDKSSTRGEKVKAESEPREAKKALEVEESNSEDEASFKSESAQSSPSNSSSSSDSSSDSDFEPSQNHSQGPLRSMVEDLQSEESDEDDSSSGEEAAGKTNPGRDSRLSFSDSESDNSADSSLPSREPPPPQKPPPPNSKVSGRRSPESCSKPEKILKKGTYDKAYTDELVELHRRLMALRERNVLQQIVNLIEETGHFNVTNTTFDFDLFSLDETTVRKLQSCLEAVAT

[2] = Stability in human plasma assessed as compound remaining measured upto 1440 mins by HPLC analysis; assay type: ADME, cell-free; settings: read-out: Stability
[3] = system: KOPN-8; experiment: cells; settings: Homo sapiens, KOPN-8, 192 h
Description: Anticancer activity against human KOPN-8 cells harbouring MLL-ENL assessed as inhibition of cell growth treated for 8 days measured by CCK-8 kit method

[4] = system: MOLM-13; experiment: cells; settings: Homo sapiens, MOLM-13, 192 h
Description: Anticancer activity against human MOLM-13 cells harbouring MLL-AF9 assessed as inhibition of cell growth treated for 8 days measured by CCK-8 kit method

[5] = Apparent permeability across apical to basolateral side in human Caco-2 cells; assay type: ADME, cell-based

Ki [1]: 240 nM
remaining at 24 h [2]: 94%
IC50 [3]: 2210 nM
IC50 [4]: 3200 nM
Papp A→B [5]: 0.73 ×10⁻⁶ cm/s
SMILES: CC(C)CCC(=O)N1CCC[C@H]1C(=O)N[C@H](C(=O)N[C@@H](CN)C(=O)N[C@@H](CC1CCCC1)C(=O)N1CCC[C@H]1c1nc(-c2ccccc2)cn1CC1CCCCC1)C(C)C ({Pentanoyl(4-Me)}-PV[Dap][Ala(cPent)]-X2)
